Legend:
blackgrass = experiment: Test B postemergence herbicide test; type: in vivo, Alopecurus myosuroides; conditions: postemergence, visual rating, scale 0 (no effect) to 100 (complete control)
Summary of the method: (§1)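 Visual ratings, 0 (no effect) to 100 (complete control), made versus controls after 13–15 d greenhouse. Paddy plants treated at 2-leaf stage; postemergence plants at 1- to 4-leaf stage, 2–18 cm tall.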

Surinam grass = experiment: Test B pre-/postemergence herbicide test; type: in vivo, Urochloa decumbens; conditions: for Surinam Grass plant response rating: postemergence, visual rating, scale 0 (no effect) to 100 (complete control)
Summary of the method: (§2)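 Seeds were planted and treated preemergence with compounds formulated in a non-phytotoxic solvent mixture containing surfactant, while plants at the 1- to 4-leaf stage (2 to 18 cm) received postemergence sprays. Flooded paddy plants were grown to the 2-leaf stage. After 13 to 15 days in a greenhouse, injury was visually rated 0–100 against untreated controls.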

giant foxtail [1] = experiment: Test B pre-/postemergence herbicide test; type: in vivo, Setaria faberi; conditions: for Foxtail, Giant plant response rating: postemergence, visual rating, scale 0 (no effect) to 100 (complete control)
Summary of the method: as §2

barnyardgrass [2] = experiment: Test B pre-/postemergence herbicide test; type: in vivo, Echinochloa crus-galli; conditions: for Barnyardgrass plant response rating: postemergence, visual rating, scale 0 (no effect) to 100 (complete control)
Summary of the method: (§3)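 Visual rating, 0 (no effect) to 100 (complete control), versus untreated controls after 13–15 d in greenhouse. Pre- and postemergence applications (postemergence plants 2–18 cm, 1–4 leaves); flooded paddy arm at 2-leaf stage. Compounds in non-phytotoxic solvent plus surfactant.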

barnyardgrass [3] = experiment: Test B flooded paddy test; type: in vivo, Echinochloa crus-galli; conditions: 1000 g ai/ha, visual rating, scale 0 to 100 (0 no effect, 100 complete control), 13 to 15 days
Summary of the method: as §1

[4] = test system: small flower umbrella sedge; experiment: Test B flooded paddy test; type: in vivo, Cyperus difformis; conditions: 1000 g ai/ha, visual rating, scale 0 to 100 (0 no effect, 100 complete control), 13 to 15 days
Summary of the method: as §1

corn = experiment: Test B pre-/postemergence herbicide test; type: in vivo, Zea mays; conditions: for Corn plant response rating: postemergence, visual rating, scale 0 (no effect) to 100 (complete control)
Summary of the method: as §2

velvetleaf [5] = experiment: Test B pre-/postemergence herbicide test; type: in vivo, Abutilon theophrasti; conditions: for Velvetleaf plant response rating: postemergence, visual rating, scale 0 (no effect) to 100 (complete control)
Summary of the method: as §2

barnyardgrass [6] = experiment: Test A pre-/postemergence herbicide test; type: in vivo, Echinochloa crus-galli
Summary of the method: (§4)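 Both application timings were run together: directed soil spray over freshly planted seeds in sandy loam, and runoff spray onto 2–10 cm seedlings. Evaluation after ~10 days in greenhouse used a 0–100 visual scale versus untreated controls.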

wheat = experiment: Test B postemergence herbicide test; type: in vivo, Triticum aestivum; parameters: key to Wheat plant response rating: 0 = no effect, 100 = complete control; conditions: postemergence, visual rating, scale 0 (no effect) to 100 (complete control)
Summary of the method: (§5)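 After treating 2-leaf paddy plants or 2–18 cm postemergence plants (1 to 4 leaves) with formulated chemical, researchers kept them in a greenhouse for 13–15 days. Effects were judged visually versus controls: 0 indicates none, 100 total control.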

large crabgrass [7] = experiment: Test B pre-/postemergence herbicide test; type: in vivo, Digitaria sanguinalis; conditions: for Crabgrass, Large plant response rating: postemergence, visual rating, scale 0 (no effect) to 100 (complete control)
Summary of the method: as §2

pigweed = experiment: Test B pre-/postemergence herbicide test; type: in vivo, Amaranthus retroflexus; conditions: for Pigweed plant response rating: postemergence, visual rating, scale 0 (no effect) to 100 (complete control)
Summary of the method: as §2

giant foxtail [8] = experiment: Test A pre-/postemergence herbicide test; type: in vivo, Setaria faberi
Summary of the method: as §4

ducksalad = experiment: Test B flooded paddy test; type: in vivo, Heteranthera limosa; conditions: 1000 g ai/ha, visual rating, scale 0 to 100 (0 no effect, 100 complete control), 13 to 15 days
Summary of the method: as §1

cocklebur = experiment: Test B pre-/postemergence herbicide test; type: in vivo, Xanthium strumarium; conditions: for Cocklebur plant response rating: postemergence, visual rating, scale 0 (no effect) to 100 (complete control)
Summary of the method: as §3

morningglory [9] = experiment: Test A pre-/postemergence herbicide test; type: in vivo, Ipomoea spp.
Summary of the method: as §4

lambsquarters = experiment: Test B pre-/postemergence herbicide test; type: in vivo, Chenopodium album; conditions: for Lambsquarters plant response rating: postemergence, visual rating, scale 0 (no effect) to 100 (complete control)
Summary of the method: as §2

rice [10] = experiment: Test B flooded paddy test; type: in vivo, Oryza sativa; conditions: 1000 g ai/ha, visual rating, scale 0 to 100 (0 no effect, 100 complete control), 13 to 15 days
Summary of the method: as §1

redroot pigweed = experiment: Test A pre-/postemergence herbicide test; type: in vivo, Amaranthus retroflexus
Summary of the method: as §4

wild oat = experiment: Test B postemergence herbicide test; type: in vivo, Avena fatua; conditions: postemergence, visual rating, scale 0 (no effect) to 100 (complete control)
Summary of the method: as §5

morningglory [11] = experiment: Test B pre-/postemergence herbicide test; type: in vivo, Ipomoea coccinea; conditions: for Morningglory plant response rating: postemergence, visual rating, scale 0 (no effect) to 100 (complete control)
Summary of the method: as §3

rice [12] = experiment: Test B pre-/postemergence herbicide test; type: in vivo, Oryza sativa; conditions: preemergence
Summary of the method: as §2

velvetleaf [13] = experiment: Test A pre-/postemergence herbicide test; type: in vivo, Abutilon theophrasti
Summary of the method: as §4

large crabgrass [14] = experiment: Test A pre-/postemergence herbicide test; type: in vivo, Digitaria sanguinalis
Summary of the method: as §4

[15] = 125 g ai/ha, 0 = no effect, 100 = complete control, preemergence
[16] = 500 g ai/ha, visual rating 0-100, 0 no effect, 100 complete control, preemergence
[17] = Postemergence, 500 g ai/ha, 0 to 100 scale, 0 no effect, 100 complete control
[18] = Postemergence, 2000 g ai/ha, 0 to 100 scale, 0 no effect, 100 complete control
[19] = Preemergence, 2000 g ai/ha, visual rating, 0 to 100 scale (0 no effect, 100 complete control)
[20] = preemergence, 500 g ai/ha, visual injury, 0 to 100 scale (0 no effect, 100 complete control)

In the case of `CCc1nc(C(C)(C)C)sc1C(=O)Nc1cccc(C(=O)NCC(F)(F)F)c1` [Compound 206], the “Blackgrass plant response rating” value (blackgrass; 125 g ai/ha) is reported as 0, the “Blackgrass plant response rating” value (blackgrass; 500 g ai/ha) is reported as 20 and the “Surinam Grass plant response rating (0 to 100 scale)” value (Surinam grass; [15]) is reported as 0. For the same compound, the “Plant response rating, Surinam Grass” value (Surinam grass; [16]) was 20, the “Surinam Grass plant response rating” value (Surinam grass; 125 g ai/ha) was 10 and the “Surinam Grass plant response rating” value (Surinam grass; 500 g ai/ha) was 20. For the same compound, the “Foxtail, Giant plant response rating (0 to 100 scale)” value (giant foxtail [1]; [15]) was 0, the “Plant response rating, Foxtail, Giant” value (giant foxtail [1]; [16]) was 20 and the “Foxtail, Giant plant response rating” value (giant foxtail [1]; 125 g ai/ha) was 20. For the same compound, the “Foxtail, Giant plant response rating” value (giant foxtail [1]; 500 g ai/ha) was 20, the “Barnyardgrass plant response rating (0 to 100 scale)” value (barnyardgrass [2]; [15]) was 10 and the “Plant response rating, Barnyardgrass” value (barnyardgrass [2]; [16]) was 70. For the same compound, the “Barnyardgrass plant response rating” value (barnyardgrass [2]; 125 g ai/ha) was 0, the “Barnyardgrass plant response rating” value (barnyardgrass [2]; 500 g ai/ha) was 10 and the “Barnyardgrass plant response rating” value (barnyardgrass [3]) was 10. For the same compound, the “Sedge, Umbrella plant response rating” value [4] was 50, the “Corn plant response rating (0 to 100 scale)” value (corn; [15]) was 0 and the “Plant response rating, Corn” value (corn; [16]) was 40. The “Corn plant response rating” value (corn; 125 g ai/ha) was 20, the “Corn plant response rating” value (corn; 500 g ai/ha) was 20 and the “Velvetleaf plant response rating (0 to 100 scale)” value (velvetleaf [5]; [15]) was 0. For the same compound, the “Plant response rating, Velvetleaf” value (velvetleaf [5]; [16]) was 10, the “Velvetleaf plant response rating” value (velvetleaf [5]; 125 g ai/ha) was 20 and the “Velvetleaf plant response rating” value (velvetleaf [5]; 500 g ai/ha) was 20. For the same compound, the “Barnyardgrass plant response rating” value (barnyardgrass [6]; [17]) was 5, the “Plant response rating, Barnyardgrass” value (barnyardgrass [6]; [18]) was 10 and the “Barnyardgrass plant response rating” value (barnyardgrass [6]; [19]) was 60. For the same compound, the “Barnyardgrass plant response rating” value (barnyardgrass [6]; [20]) was 10, the “Wheat plant response rating” value (wheat; 125 g ai/ha) was 20 and the “Wheat plant response rating” value (wheat; 500 g ai/ha) was 20. For the same compound, the “Crabgrass, Large plant response rating (0 to 100 scale)” value (large crabgrass [7]; [15]) was 10, the “Plant response rating, Crabgrass, Large” value (large crabgrass [7]; [16]) was 60 and the “Crabgrass, Large plant response rating” value (large crabgrass [7]; 125 g ai/ha) was 10. For the same compound, the “Crabgrass, Large plant response rating” value (large crabgrass [7]; 500 g ai/ha) was 30, the “Pigweed plant response rating (0 to 100 scale)” value (pigweed; [15]) was 0 and the “Plant response rating, Pigweed” value (pigweed; [16]) was 80. For the same compound, the “Pigweed plant response rating” value (pigweed; 125 g ai/ha) was 30, the “Pigweed plant response rating” value (pigweed; 500 g ai/ha) was 40 and the “Foxtail, Giant plant response rating” value (giant foxtail [8]; [17]) was 0. For the same compound, the “Plant response rating, Foxtail, Giant” value (giant foxtail [8]; [18]) was 0, the “Foxtail, Giant plant response rating” value (giant foxtail [8]; [19]) was 20 and the “Foxtail, Giant plant response rating” value (giant foxtail [8]; [20]) was 0. The “Ducksalad plant response rating” value (ducksalad) was 40, the “Cocklebur plant response rating (0 to 100 scale)” value (cocklebur; [15]) was 0 and the “Plant response rating, Cocklebur” value (cocklebur; [16]) was 0. For the same compound, the “Cocklebur plant response rating” value (cocklebur; 125 g ai/ha) was 20, the “Cocklebur plant response rating” value (cocklebur; 500 g ai/ha) was 40 and the “Morningglory plant response rating” value (morningglory [9]; [17]) was 0. The “Plant response rating, Morningglory” value (morningglory [9]; [18]) was 0, the “Morningglory plant response rating” value (morningglory [9]; [19]) was 25 and the “Morningglory plant response rating” value (morningglory [9]; [20]) was 5. For the same compound, the “Lambsquarters plant response rating (0 to 100 scale)” value (lambsquarters; [15]) was 0, the “Plant response rating, Lambsquarters” value (lambsquarters; [16]) was 30 and the “Lambsquarters plant response rating” value (lambsquarters; 125 g ai/ha) was 30. The “Lambsquarters plant response rating” value (lambsquarters; 500 g ai/ha) was 80, the “Rice plant response rating” value (rice [10]) was 30 and the “Pigweed plant response rating” value (redroot pigweed; [17]) was 15. For the same compound, the “Plant response rating, Pigweed” value (redroot pigweed; [18]) was 20, the “Pigweed plant response rating” value (redroot pigweed; [19]) was 60 and the “Pigweed plant response rating” value (redroot pigweed; [20]) was 25. For the same compound, the “Oat, Wild plant response rating” value (wild oat; 125 g ai/ha) was 20, the “Oat, Wild plant response rating” value (wild oat; 500 g ai/ha) was 20 and the “Morningglory plant response rating (0 to 100 scale)” value (morningglory [11]; [15]) was 0. The “Plant response rating, Morningglory” value (morningglory [11]; [16]) was 20, the “Morningglory plant response rating” value (morningglory [11]; 125 g ai/ha) was 20 and the “Morningglory plant response rating” value (morningglory [11]; 500 g ai/ha) was 20. For the same compound, the “Rice plant response rating (0 to 100 scale)” value (rice [12]; 125 g ai/ha, 0 = no effect, 100 = complete control) was 0, the “Plant response rating, Rice” value (rice [12]; 500 g ai/ha, visual rating 0-100, 0 no effect, 100 complete control) was 30 and the “Velvetleaf plant response rating” value (velvetleaf [13]; [17]) was 5. For the same compound, the “Plant response rating, Velvetleaf” value (velvetleaf [13]; [18]) was 20, the “Velvetleaf plant response rating” value (velvetleaf [13]; [19]) was 10 and the “Velvetleaf plant response rating” value (velvetleaf [13]; [20]) was 15. The “Crabgrass, Large plant response rating” value (large crabgrass [14]; [17]) was 0, the “Plant response rating, Crabgrass, Large” value (large crabgrass [14]; [18]) was 5 and the “Crabgrass, Large plant response rating” value (large crabgrass [14]; [19]) was 20. The “Crabgrass, Large plant response rating” value (large crabgrass [14]; [20]) was 20.

Source: patent US20060069132A1, “Azolecarboxamide herbicides” (priority 2004, published 2006)
